According to patent US10364256B2 (GlaxoSmithKline Intellectual Property Development Limited, priority 2015, dated 2019):
pEC50, pIC50: −log10 of the molar value.

Legend:
[1] = test system: NQO1 specific enzyme activity in BEAS-2B cells (marker for NRF2 activation); experiment: BEAS-2B NQO1 MTT Assay; type: cell-based; conditions: Homo sapiens, BEAS-2B, 48 h, compound incubated 48 hours, read-out: EC50 (NQO1 specific enzyme activity induction)
Procedure, shortened: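 BEAS-2B cells treated with compound for 48 h at 37 °C, then lysed; NQO1 activity in lysates measured kinetically by MTT reduction at A570 over 30 min. pEC50 from 3-parameter fit of ΔOD/min versus log concentration; lysate also taken for Cell Titer Glo.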

[2] = molecular target: T1, Keap1 Kelch domain (321-609) / TAMRA-labeled 16mer NRF2 peptide (ETGE motif) (Homo sapiens, UniProt Q14145); experiment: NRF2-Keap1 FP Assay (Keap1 Kelch fluorescence polarization); type: binding; conditions: 20 nM Keap1 (321-609), 8 nM Tamra labeled peptide
T1 construct: the Kelch domain (321-609) of Keap1 is used
Procedure, shortened: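 Compound dilutions (3-fold) were incubated 1 hr at room temperature with 20 nM Keap1 Kelch (321-609) and 8 nM TAMRA-labeled ETGE 16mer peptide. Buffer was 50 mM Tris pH 8.0, 100 mM NaCl, 5 mM MgCl2, 1 mM DTT, 2 mM CHAPS, 0.005% BSA. Fluorescence polarization (mP) was normalized to controls and fitted with a four-parameter equation to give pIC50.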

[3] = molecular target: T2, full length Keap1 protein / full length NRF2 protein (Homo sapiens, UniProt Q14145); experiment: NRF2-Keap1 TR-FRET Assay; type: binding; conditions: 25 nM Keap1-FlagHis and 50 nM biotin-NRF2 added
T2 construct: full length NRF2 protein and full length Keap1 protein (Keap1 exists a dimer) are used; His
Procedure, shortened: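 Full-length Keap1-FlagHis preincubated with compound 2.25 h at 37 °C, then biotin-NRF2 added for 1.25 h at 4 °C, in Tris pH 8.0 with MgCl2, NaCl, BSA, DTT, CHAPS. TR-FRET 665/615 nm ratio normalised to with- and without-protein 1% DMSO controls; pIC50 from four-parameter fit.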

T1 sequence (Q14145 321-609): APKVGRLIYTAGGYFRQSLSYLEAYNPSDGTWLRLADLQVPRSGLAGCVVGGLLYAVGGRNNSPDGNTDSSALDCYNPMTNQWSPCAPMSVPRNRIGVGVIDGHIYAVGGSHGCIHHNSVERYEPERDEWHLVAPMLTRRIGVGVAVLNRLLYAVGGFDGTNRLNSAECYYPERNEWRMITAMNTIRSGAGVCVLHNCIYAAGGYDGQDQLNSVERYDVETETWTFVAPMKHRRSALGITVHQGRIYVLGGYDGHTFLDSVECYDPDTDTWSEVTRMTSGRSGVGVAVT
T2 sequence (Q14145 whole entry): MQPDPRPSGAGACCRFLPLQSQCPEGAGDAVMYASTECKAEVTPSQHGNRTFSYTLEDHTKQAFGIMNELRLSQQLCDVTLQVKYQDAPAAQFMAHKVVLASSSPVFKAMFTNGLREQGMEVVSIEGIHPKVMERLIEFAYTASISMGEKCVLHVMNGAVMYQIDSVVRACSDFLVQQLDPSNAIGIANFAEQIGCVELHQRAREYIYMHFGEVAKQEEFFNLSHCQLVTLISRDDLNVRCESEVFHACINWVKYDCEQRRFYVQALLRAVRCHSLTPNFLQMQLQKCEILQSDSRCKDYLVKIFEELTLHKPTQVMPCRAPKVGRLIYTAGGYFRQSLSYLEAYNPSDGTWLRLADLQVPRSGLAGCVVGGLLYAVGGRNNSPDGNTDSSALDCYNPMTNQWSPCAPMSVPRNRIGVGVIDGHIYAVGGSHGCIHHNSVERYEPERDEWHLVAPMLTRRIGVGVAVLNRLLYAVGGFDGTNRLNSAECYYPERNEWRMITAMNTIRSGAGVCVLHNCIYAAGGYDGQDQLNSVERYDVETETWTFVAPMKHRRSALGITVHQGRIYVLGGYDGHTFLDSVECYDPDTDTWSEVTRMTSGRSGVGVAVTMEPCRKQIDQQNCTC

pIC50 [2]: 7.00 to 8.00
pIC50 [3]: 6.00 to 7.00
Compound: CCC[C@@H]1CCCCN1C(=O)c1cccc(-c2cccc(-n3ncc(C(=O)O)c3CCc3cn(C)nn3)c2)c1 [Example 58, (R)-5-(2-(1-Methyl-1H-1,2,3-triazol-4-yl)ethyl)-1-(3′-(2-propylpiperidine-1-carbonyl)-[1,1′-biphenyl]-3-yl)-1H-pyrazole-4-carboxylic Acid]
pEC50 [1]: 5.00 to 6.00
